# Test results: patent US20250282785A1, “PYRROLIDINONE DERIVATIVES AS INHIBITORS OF NF KAPPA B INDUCING KINASE” (priority 2022, published 2025)
# Experiments:
# [1] = biological target: Recombinant Human NF-Kappab-Inducing Kinase (NIK/MAP3K14) (Homo sapiens, UniProt Q99558); assay: Inhibition of auto-phosphorylation of recombinant human NIK/MAP3K14 (AlphaScreen); format: biochemical; details: NIK/MAP3K14 auto-phosphorylation, 5 microM ATP, 1 nM enzyme, 2 h at 25° C.; average of values; read-out: Assay 1 IC50
# Protocol: Biological Assay 1: Inhibition of Auto-Phosphorylation of Recombinant Human NF-Kappab-Inducing Kinase (NIK/MAP3K14) Activity (AlphaScreen®)
# NIK/MAP3K14 auto-phosphorylation activity was measured using the AlphaScreen® ((αscreen) format (Perkin ElmeR). All compounds tested were dissolved in dimethyl sulfoxide (DMSO) and further dilutions were made in assay buffer. Final DMSO concentration was 0.7% (v/v) in assays. Assay buffer was 50 mM Tris pH 7.5 containing 1 mM EGTA (ethylene glycol tetraacetic acid), 1 mM DTT (dithiothreitol), 0.1 mM Na3VO4, 5 mM MgCl2, 0.01% Tween® 20. Assays were carried out in 384 well Proxiplates (Perkin ElmeR). Incubations consisted of compound, 5 microM Adenosine-5′-triphosphate (ATP), and 1 nM NIK/MAP3K14. Incubations were initiated by addition of GST-tagged NIK/MAP3K14 enzyme, carried out for 2 h at 25° C. and terminated by addition of stop buffer containing anti-phospho-IKK Ser176/180 antibody. Protein A Acceptor and Glutathione-donor beads were added before reading using an EnVision® Multilabel Plate Reader (Perkin ElmeR). Signal obtained in the wells was normalized using high (full enzyme activity, 0.7% DMSO) and low controls (no enzyme activity, 0.7% DMSO, no ATP). IC50's were determined by fitting a sigmoidal curve to % inhibition of control versus Log10 compound concentration.
# [2] = tested on: p-IKKα levels in L363 (NIK translocated multiple myeloma) cells; assay: Effect of compounds on p-IKKα levels in L363 cells (AlphaLISA SureFire Ultra); format: cell-based; details: Homo sapiens, L-363; L363 cells, BAFF stimulated, MG132, 6 h; average of values; read-out: Assay 2 IC50
# Protocol: Biological Assay 2: Effect of Compounds on p-IKKα Levels in L363 (NIK Translocated Multiple Myeloma) Cells
# All compounds tested were dissolved and serially diluted in DMSO, 1:3 dilution for 11 points in an Echo compatible plate. 100% DMSO is added to columns 12 and 24 of the plate to serve as high and low signal controls. This compound plate was used to spot 20 nl of compound or DMSO into a Greiner 384 well TC plate (781080). Final DMSO concentration was […] (v/v) in cell assays. Human L363 cells (ATCC) were cultured in RPMI 1640 medium supplemented with GlutaMax, non-essential amino acids, sodium pyruvate and 10% fetal bovine serum. Cells were routinely maintained at densities of 0.2×10^6 cells per ml −2×10^6 cells per ml at 37° C. in a humidified 5% CO2 atmosphere incubator. Cells were passaged twice a week splitting back to obtain the low density. The day before the assay, cells were washed twice in HBSS, resuspended in DMEM+0.5% IgG and protease free BSA (Jackson Immuno Research Laboratories), +/−250 ng/ml recombinant human B-cell activating factor (BAFF/BLyS/TNFSF13B) and incubated overnight at 37° C. in a humidified 5% CO2 atmosphere (bulk stimulation with or without BAFF). The next day, cell concentration was adjusted to 1×10^7 cells/ml in DMEM+/−250 ng/ml BAFF+/−10 uM MG132 and plated at 10 ul/well into compound or DMSO spotted 384 well TC plates. Seeded cells were incubated at 37° C. in a humidified 5% CO2 atmosphere for 6 h. After 6 h, plates were removed from the incubator and cell lysis was achieved by the addition of 2.5 μl 5× lysis buffer containing protease and phosphatase inhibitors, followed by shaking on a plate shaker at room temperature for 15 min. At the end of this incubation, lysed cells were sequentially treated and incubated with acceptor and donor bead mixes according to the manufacturer's protocol for a 1 plate/2-incubation suspension cell assay (AlphaLISA SureFire Ultra p-IKKα (Ser 176/180) Assay Kit (Perkin ElmeR). Plates were read using an EnVision® Multilabel Plate Reader (Perkin ElmeR). Within an experiment, a concentration response curve for each compound was run in duplicate. Signal obtained in the test wells was normalized using high signal (BAFF stimulated cells, DMSO, MG132) and low signal (unstimulated cells, DMSO) controls. To determine the IC50, a sigmoidal curve was fitted to the plot of % inhibition versus Log10 compound concentration.
# Recombinant Human NF-Kappab-Inducing Kinase (NIK/MAP3K14), sequence (Q99558 whole entry): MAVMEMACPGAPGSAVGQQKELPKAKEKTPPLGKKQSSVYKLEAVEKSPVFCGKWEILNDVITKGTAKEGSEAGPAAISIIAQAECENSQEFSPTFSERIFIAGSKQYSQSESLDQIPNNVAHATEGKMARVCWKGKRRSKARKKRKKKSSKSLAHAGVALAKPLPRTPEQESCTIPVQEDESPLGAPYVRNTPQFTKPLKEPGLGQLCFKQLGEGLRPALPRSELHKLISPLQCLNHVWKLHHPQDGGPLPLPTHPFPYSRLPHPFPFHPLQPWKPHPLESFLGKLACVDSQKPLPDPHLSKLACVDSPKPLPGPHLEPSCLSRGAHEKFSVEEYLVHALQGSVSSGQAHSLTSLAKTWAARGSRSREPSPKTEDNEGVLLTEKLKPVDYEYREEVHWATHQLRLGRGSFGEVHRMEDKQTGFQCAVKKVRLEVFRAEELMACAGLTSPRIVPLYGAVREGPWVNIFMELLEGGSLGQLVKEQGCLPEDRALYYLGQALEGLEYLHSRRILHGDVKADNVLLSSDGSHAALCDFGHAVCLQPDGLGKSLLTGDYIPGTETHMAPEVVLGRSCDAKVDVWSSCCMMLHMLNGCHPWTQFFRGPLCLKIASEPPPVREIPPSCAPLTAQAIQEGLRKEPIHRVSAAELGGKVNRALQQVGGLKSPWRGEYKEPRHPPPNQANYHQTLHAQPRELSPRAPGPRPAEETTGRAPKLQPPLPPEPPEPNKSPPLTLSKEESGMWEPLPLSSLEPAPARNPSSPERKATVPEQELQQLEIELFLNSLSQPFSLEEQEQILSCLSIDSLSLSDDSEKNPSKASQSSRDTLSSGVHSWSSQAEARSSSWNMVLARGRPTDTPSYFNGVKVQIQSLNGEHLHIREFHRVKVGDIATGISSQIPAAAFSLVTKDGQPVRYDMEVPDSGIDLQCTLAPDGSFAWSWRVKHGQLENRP
Structure (SMILES),IC50 [1] [nM],IC50 [2] [nM]
"[2H]c1nc(N)c2nc(-c3cccc(-c4ncc([C@]5(O)CCN(C)C5=O)o4)c3)ccc2n1 (single isomer, unassigned) [Example 39]",> 501,> 501
"[2H]c1nc(N)c2nc(-c3cccc(-c4ncc([C@@]5(O)CCN(C)C5=O)o4)c3)ccc2n1 (single isomer, unassigned) [Example 40]",> 501,> 501
"[2H]c1nc(N)c2nc(-c3cccc(-c4nc([C@]5(O)CCN(C)C5=O)co4)c3)ccc2n1 (single isomer, unassigned) [Example 41]",> 501,> 501
"[2H]c1nc(N)c2nc(-c3cccc(-c4cc([C@]5(O)CCN(C)C5=O)nn4C)c3)ccc2n1 (single isomer, unassigned) [Example 43]",100 to 500,> 501
"[2H]c1nc(N)c2nc(-c3cccc(-c4cc([C@@]5(O)CCN(C)C5=O)nn4C)c3)ccc2n1 (single isomer, unassigned) [Example 44]",> 501,> 501
"Cc1cc(N2CCC[C@@H](c3cc([C@]4(O)CCN(C)C4=O)on3)C2)nc2c(N)ncnc12 (single isomer, unassigned) [Example 199]",< 100,> 501
"Cc1cc(N2CCC[C@H](c3cc([C@]4(O)CCN(C)C4=O)on3)C2)nc2c(N)ncnc12 (single isomer, unassigned) [Example 200]",< 100,> 501
"CN1CC[C@@](O)(c2cc([C@@H]3CCCN(c4ccc5ncnc(N)c5n4)C3)no2)C1=O (single isomer, unassigned) [Example 202]",< 100,> 501
"CN1CC[C@@](O)(c2cc([C@H]3CCCN(c4ccc5ncnc(N)c5n4)C3)no2)C1=O (single isomer, unassigned) [Example 203]",< 100,> 501
"CN1CC[C@@](O)(c2cc(-c3cccc(-c4sc(Br)nc4C(N)=O)c3)no2)C1=O (single isomer, unassigned) [Example 214]",> 501,> 501
"CN1CC[C@@](O)(c2cc(-c3cccc(-c4nc5c(c(C(N)=O)n4)C4CCC(C5)O4)c3)[nH]n2)C1=O (stereo in doubt) [Example 174, (5R,8S)-2-(3-(5-((R)-3-Hydroxy-1-methyl-2-oxopyrrolidin-3-yl)-1H-pyrazol-3-yl)phenyl)-6,7,8,9-tetrahydro-5H-5,8-epoxycyclohepta[d]pyrimidine-4-carboxamide]",100 to 500,> 501
"Cc1nc(N)c2nc(-c3cccc(-c4cc([C@]5(O)CCN(C)C5=O)on4)c3)ccc2n1 [Example 1, (R)-3-(3-(3-(4-Amino-2-methylpyrido[3,2-d]pyrimidin-6-yl)phenyl)isoxazol-5-yl)-3-hydroxy-1-methylpyrrolidin-2-one]",< 100,100 to 500
"[2H]c1nc(N)c2nc(-c3cccc(-c4cc([C@]5(O)CCN(C)C5=O)on4)c3)ccc2n1 [Example 2, (R)-3-(3-(3-(4-Aminopyrido[3,2-d]pyrimidin-6-yl-2-d)phenyl)isoxazol-5-yl)-3-hydroxy-1-methylpyrrolidin-2-one]",< 100,100 to 500
"Cc1nc(N)c2nc(-c3cccc(-c4cc([C@]5(O)CCN(C)C5=O)no4)c3)ccc2n1 [Example 3, (R)-3-(5-(3-(4-Amino-2-methylpyrido[3,2-d]pyrimidin-6-yl)phenyl)isoxazol-3-yl)-3-hydroxy-1-methylpyrrolidin-2-one]",< 100,> 501
"CN1CC[C@@](O)(c2cc(-c3cccc(-c4ccc5[nH]nc(N)c5n4)c3)no2)C1=O [Example 4, (R)-3-(3-(3-(3-Amino-1H-pyrazolo[4,3-b]pyridin-5-yl)phenyl)isoxazol-5-yl)-3-hydroxy-1-methylpyrrolidin-2-one]",< 100,> 501
"CN1CC[C@@](O)(c2cc(-c3cccc(-c4ccc5c(n4)c(N)nn5C)c3)no2)C1=O [Example 5, (R)-3-(3-(3-(3-Amino-1-methyl-1H-pyrazolo[4,3-b]pyridin-5-yl)phenyl)isoxazol-5-yl)-3-hydroxy-1-methylpyrrolidin-2-one]",100 to 500,> 501
"CN1CC[C@@](O)(c2cc(-c3cccc(-c4ccc(N)c(C(N)=O)n4)c3)no2)C1=O [Example 7, (R)-3-Amino-6-(3-(5-(3-hydroxy-1-methyl-2-oxopyrrolidin-3-yl)isoxazol-3-yl)phenyl)picolinamide]",< 100,< 100
"COc1cc(C(N)=O)nc(-c2cccc(-c3cc([C@]4(O)CCN(C)C4=O)on3)c2)c1 [Example 8, (R)-6-(3-(5-(3-Hydroxy-1-methyl-2-oxopyrrolidin-3-yl)isoxazol-3-yl)phenyl)-4-methoxypicolinamide]",< 100,100 to 500
"CN1CC[C@@](O)(c2cc(-c3cccc(-c4ncc5ccnc(N)c5n4)c3)no2)C1=O [Example 10, (R)-3-(3-(3-(8-Aminopyrido[3,4-d]pyrimidin-2-yl)phenyl)isoxazol-5-yl)-3-hydroxy-1-methylpyrrolidin-2-one]",< 100,> 501
"CN1CC[C@@](O)(c2cc(-c3cccc(-c4ccc5ncnc(N6CCC6)c5n4)c3)no2)C1=O [Example 11, (R)-3-(3-(3-(4-(Azetidin-1-yl)pyrido[3,2-d]pyrimidin-6-yl)phenyl)isoxazol-5-yl)-3-hydroxy-1-methylpyrrolidin-2-one]",< 100,> 501
"Cc1ccc(-c2cc([C@]3(O)CCN(C)C3=O)on2)cc1-c1nc2c(N)ncnc2s1 [Example 12, (R)-3-(3-(3-(7-Aminothiazolo[5,4-d]pyrimidin-2-yl)-4-methylphenyl)isoxazol-5-yl)-3-hydroxy-1-methylpyrrolidin-2-one]",< 100,> 501
"CN1CC[C@@](O)(c2cc(-c3cccc(-c4nc5c(N)ncnc5s4)c3)no2)C1=O [Example 13, (R)-3-(3-(3-(7-Aminothiazolo[5,4-d]pyrimidin-2-yl)phenyl)isoxazol-5-yl)-3-hydroxy-1-methylpyrrolidin-2-one]",< 100,> 501
"CN1CC[C@@](O)(c2cn(-c3cccc(-c4cccc(C(N)=O)n4)c3)nn2)C1=O [Example 14, (R)-6-(3-(4-(3-Hydroxy-1-methyl-2-oxopyrrolidin-3-yl)-1H-1,2,3-triazol-1-yl)phenyl)picolinamide]",< 100,> 501
"CN1CC[C@@](O)(c2cn(-c3cccc(-c4nc(C(N)=O)n5ccccc45)c3)nn2)C1=O [Example 15, (R)-1-(3-(4-(3-Hydroxy-1-methyl-2-oxopyrrolidin-3-yl)-1H-1,2,3-triazol-1-yl)phenyl)imidazo[1,5-a]pyridine-3-carboxamide]",< 100,< 100
"[2H]c1nc(N)c2nc(-c3cccc(-c4cc([C@]5(O)CCN(C)C5=O)no4)c3)ccc2n1 [Example 16, (R)-3-(5-(3-(4-Aminopyrido[3,2-d]pyrimidin-6-yl-2-d)phenyl)isoxazol-3-yl)-3-hydroxy-1-methylpyrrolidin-2-one]",< 100,100 to 500
"CN1CC[C@@](O)(c2cc(-c3cccc(-c4ccc5[nH]nc(N)c5n4)c3)on2)C1=O [Example 17, (R)-3-(5-(3-(3-Amino-1H-pyrazolo[4,3-b]pyridin-5-yl)phenyl)isoxazol-3-yl)-3-hydroxy-1-methylpyrrolidin-2-one]",< 100,> 501
